Source: PMC13194776, “Small-molecule binding and sensing with a designed protein family” (Nature Communications, 2026)
One block for each compound: values may come before it.

Experiments:
albumin = biological target: T1, albumin; test: Fluorescence polarization cross-reactivity assay with TAMRA-labelled ligands at 5 nM (HCY, OHP, WRF) or 10 nM (SN-38) titrated with binder or albumin.; type: binding; conditions: read-out: KD (μM), specificity table, TAMRA-labelled targets
T1 construct: control protein
From the text: (§1) measured against all six targets. Raw binding traces can be found in Supplementary

roc22182.1 [1] = biological target: T2, roc22182.1; test: as above; type: binding; conditions: read-out: KD (μM), specificity table, TAMRA-labelled targets
T2 construct: N-terminal hexahistidine tag; 9 mutations compared to the original design
From the text: as §1

iri807.1 [2] = biological target: T3, iri807.1; test: as above; type: binding; conditions: read-out: KD (μM), specificity table, TAMRA-labelled targets
T3 construct: N-terminal hexahistidine tag; 3 mutations compared to the original design
From the text: as §1

ohp1952 = biological target: T4, ohp1952; test: as above; type: binding; conditions: read-out: KD (μM), specificity table, TAMRA-labelled targets
T4 construct: N-terminal hexahistidine tag; original design
From the text: as §1

hcy129.1 [3] = biological target: T5, hcy129.1; test: as above; type: binding; conditions: read-out: KD (μM), specificity table, TAMRA-labelled targets
T5 construct: N-terminal hexahistidine tag; 4 mutations compared to the original design
From the text: as §1

apx1049 = biological target: T6, apx1049; test: Isothermal titration calorimetry at 25 °C with warfarin or apixaban, 5% DMSO in all solutions, single-site binding model.; conditions: read-out: KD (μM), ITC, warfarin and apixaban
T6 construct: N-terminal hexahistidine tag; original design
Protocol: (§2) Binding affinity of designed proteins was assessed by titrating purified protein with ligand using a microcal PEAQ ITC-Automated instrument. Both protein and ligand were prepared in identical buffers that were degassed by bottle-top filtration. […] All titrations were performed at 25 °C and 19 total injections, 0.4 μL for the first injection and 2 μL for the remaining 18. Resulting titration data were analyzed with the Malvern Panalytical ITC Analysis software, and a single-site binding model was used to fit the resulting data.

apx2592 = biological target: T7, apx2592; test: as above; conditions: read-out: KD (μM), ITC, warfarin and apixaban
T7 construct: N-terminal hexahistidine tag; original design
Protocol: as §2

apx1493 = biological target: T8, apx1493; test: as above; conditions: read-out: KD (μM), ITC, warfarin and apixaban
T8 construct: N-terminal hexahistidine tag; original design
Protocol: as §2

apx1501 = biological target: T9, apx1501; test: as above; conditions: read-out: KD (μM), ITC, warfarin and apixaban
T9 construct: N-terminal hexahistidine tag; original design
Protocol: as §2

hcy129.1 [4] = biological target: T5, hcy129.1; test: Isothermal titration calorimetry of purified designs with unlabelled ligand at 25 °C, single-site fit; 1% DMSO for cortisol, 5% DMSO for warfarin and apixaban, HEPES pH 8 for rocuronium.; type: binding; conditions: read-out: KD (μM) ITC
Protocol: Characterization of binding affinity by ITC
as §2

hcy129_mpnn5 = biological target: T10, hcy129_mpnn5; test: Isothermal titration calorimetry at 25 °C with cortisol, 1% DMSO in all solutions, single-site binding model.; conditions: read-out: KD (μM), ITC, cortisol
T10 construct: ProteinMPNN surface-redesigned version; 9 mutations compared to the original design as printed
Protocol: as §2
(§3) Supplementary Table 2. Small-molecule binding characterization results
(§4) Target Design name Number of KD (μM) KD determination

hcy129 = biological target: T11, hcy129; test: as above; conditions: read-out: KD (μM), ITC, cortisol
T11 construct: N-terminal hexahistidine tag; original design
Protocol: as §2, §3, §4

hcy129.1 [5] = biological target: T5, hcy129.1; test: as above; conditions: read-out: KD (μM), ITC, cortisol
Protocol: as §2, §3, §4

hcy129.1_CID = biological target: T12, hcy129.1_CID; test: as above; conditions: read-out: KD (μM), ITC, cortisol
T12 construct: 7 mutations compared to the original design
Protocol: as §2, §3, §4

[6] = system: hcy129.1_CID-SmBiT and miniH11_LgBiT; test: Cortisol-induced dimerization NanoBiT luminescent sensor; type: biochemical; conditions: sensor components 200 nM each, 2 h, DTZ 25 μM; estimated; read-out: EC50 of luminescent signal
Protocol: Immediately after adding the luciferase substrate diphenylterazine (DTZ) at a final concentration of 25 μΜ, the luminescent signal was measured on a Neo2 plate reader (Fig. 4H).
hcy129.1_CID (200 nM) and minibinder designed for CID (miniH11, 200 nM) was titrated with various
ligands and incubated for 2 hours, followed by addition of DTZ (25 μM) to initiate luminescence reaction.
All reactions were carried out at 50 μL final volume in HBS-EP+ buffer (Cytiva).

roc22182.1 [7] = biological target: T2, roc22182.1; test: Isothermal titration calorimetry at 25 °C with rocuronium in 20 mM HEPES, 50 mM NaCl, pH 8, no DMSO, single-site binding model.; conditions: read-out: KD (μM), ITC, rocuronium
Protocol: as §2, §3, §4

roc22182 = biological target: T13, roc22182; test: as above; conditions: read-out: KD (μM), ITC, rocuronium
T13 construct: N-terminal hexahistidine tag; original design
Protocol: as §2, §3, §4

wrf1071 [8] = biological target: T14, wrf1071; test: Isothermal titration calorimetry at 25 °C with warfarin or apixaban, 5% DMSO in all solutions, single-site binding model.; conditions: read-out: KD (μM), ITC, warfarin and apixaban
T14 construct: N-terminal hexahistidine tag; original design
Protocol: as §2

wrf929 = biological target: T15, wrf929; test: as above; conditions: read-out: KD (μM), ITC, warfarin and apixaban
T15 construct: N-terminal hexahistidine tag; original design
Protocol: as §2, §3, §4

[9] = Cross-reactivity BLI binding to APX-Biotin; conditions: APX-Biotin immobilized, binders titrated 3-fold from 25uM
Protocol: (§5) Biolayer interferometry (BLI) was used to estimate the binding affinity and screen for binding of the purified proteins and target small-molecules APX, and SN-38. […] 1 μM of small-molecule targets with biotin conjugated (APX-Biotin and SN-38-Biotin) were used as ligands to be immobilized to the Octet Streptavidin biosensors (Sartorius). Titration experiments were performed at 25 °C, and the kinetic response data was collected using Octet RED96 and R8 (ForteBio). The resulting responses of the analytes were corrected using the signal from the reference buffer, and further analysis was performed using the Octet Data Analysis software.
(§6) We performed an all by all binding experiment between all targets and representative binders for each target. […] Fluorescence polarization filter cube (Red1 FP, EX 530/25 nm;EM 590/35 nm, Agilent) was used to measure polarization. […] Biotinylated APX and ROC were immobilized to the Streptavidin biosensor and all binders were titrated 3-fold starting from 25uM. Other experimental conditions were kept the same as described above for characterization using FP and BLI.

[10] = Cross-reactivity FP binding to OHP-TAMRA; conditions: OHP-TAMRA 5 nM
Protocol: (§7) Two-fold serial dilutions of the binder protein were prepared in 24 wells with constant amounts of the target ligand, and the plate was incubated at room temperature, shaking for at least 30 min. Fluorescence polarization filter cube (Red FP, EX 530/25 nm;EM 590/35 nm, Agilent) was used to measure polarization with the plate reader (Synergy Neo2, Biotek). A binding isotherm model was used to fit the data and estimate KD.
as §6

[11] = Cross-reactivity BLI binding to ROC-Biotin; conditions: ROC-Biotin immobilized, binders titrated 3-fold from 25uM
Protocol: as §5, §6

[12] = Cross-reactivity FP binding to HCY-TAMRA; conditions: HCY-TAMRA 5 nM
Protocol: as §7, §6

[13] = Cross-reactivity FP binding to SN-38-TAMRA; conditions: SN-38-TAMRA 10 nM
Protocol: as §7, §6

iri807.1 [14] = biological target: T3, iri807.1; test: Fluorescence polarization with 6 nM fluorophore-labelled OHP-AF488 or SN-38-TAMRA titrated with binder protein in PBS at room temperature, binding isotherm fit.; conditions: read-out: KD (μM), FP
Protocol: (§8) Two-fold serial dilutions of the binder protein were prepared in 24 wells with constant amounts of the target ligand, and the plate was incubated at room temperature, shaking for at least 30 min. […] A binding isotherm model was used to fit the data and estimate KD.
as §3, §4

iri807 = biological target: T16, iri807; test: as above; conditions: read-out: KD (μM), FP
T16 construct: N-terminal hexahistidine tag; original design
Protocol: as §8, §3, §4

iri807.2 = biological target: T17, iri807.2; test: as above; conditions: read-out: KD (μM), FP
T17 construct: N-terminal hexahistidine tag; 3 mutations compared to the original design
Protocol: as §8, §3, §4

iri807.3 = biological target: T18, iri807.3; test: as above; conditions: read-out: KD (μM), FP
T18 construct: N-terminal hexahistidine tag; 3 mutations compared to the original design
Protocol: as §8, §3, §4

iri3009 = biological target: T19, iri3009; test: as above; conditions: read-out: KD (μM), FP
T19 construct: N-terminal hexahistidine tag; original design
Protocol: as §8, §3, §4

wrf1071 [15] = biological target: T14, wrf1071; test: Fluorescence polarization cross-reactivity assay with TAMRA-labelled ligands at 5 nM (HCY, OHP, WRF) or 10 nM (SN-38) titrated with binder or albumin.; type: binding; conditions: read-out: KD (μM), specificity table, TAMRA-labelled targets
From the text: as §1

Compound: 17α-hydroxyprogesterone-TAMRA (TAMRA conjugate) [OHP-TAMRA]
Kd (albumin): 52 µM
Kd (roc22182.1 [1]): 0.078 µM
Kd (iri807.1 [2]): 0.27 µM
Kd (ohp1952): 0.005 µM
Kd (hcy129.1 [3]): 0.005 µM

Kd (apx1049): 0.679 µM
Kd (apx2592): 3.16 µM
Kd (apx1493): 9.67 µM
Kd (apx1501): 5.5 µM
Compound: COc1ccc(-n2nc(C(N)=O)c3c2C(=O)N(c2ccc(N4CCCCC4=O)cc2)CC3)cc1 [apixaban, apixaban (APX)]

Compound: C[C@]12CCC(=O)C=C1CC[C@@H]1[C@@H]2[C@@H](O)C[C@@]2(C)[C@H]1CC[C@]2(O)C(=O)CO [cortisol, cortisol (HCY)]
Kd (hcy129.1 [4]): 0.068 µM
Kd (hcy129_mpnn5): 3.4 µM
Kd (hcy129): 2.3 µM
Kd (hcy129.1 [5]): 0.065 µM
Kd (hcy129.1_CID): 0.064 µM

Compound: C[C@]12CCC(=O)C=C1CC[C@@H]1[C@@H]2[C@@H](O)C[C@@]2(C)[C@H]1CC[C@]2(O)C(=O)CO [cortisol]
EC50 [6]: 72 nM

Compound: C=CC[N+]1([C@H]2C[C@H]3[C@@H]4CC[C@H]5C[C@H](O)[C@@H](N6CCOCC6)C[C@]5(C)[C@H]4CC[C@]3(C)[C@H]2OC(C)=O)CCCC1 [rocuronium, rocuronium (ROC)]
Kd (roc22182.1 [7]): > 4 µM
Kd (roc22182): > 50 µM

Compound: CC(=O)CC(c1ccccc1)c1c(O)c2ccccc2oc1=O (stereo not drawn) [warfarin, warfarin (WRF)]
Kd (wrf1071 [8]): 0.83 µM
Kd (wrf929): 5.9 µM

Binding affinity KD [9]: No binding
Binding affinity KD ([9]; listed as albumin): no binding
Binding affinity KD [10]: weak binding
Binding affinity KD [11]: No binding
Binding affinity KD ([11]; listed as albumin): no binding
Binding affinity KD [12]: No binding
Binding affinity KD ([12]; listed as albumin): no binding
Binding affinity KD [13]: No binding
Binding affinity KD ([13]; listed as albumin): no binding
Compound: Albumin: control protein known for promiscuous binding to hydrophobic ligands; bovine serum albumin per b230

Compound: SN-38-TAMRA (fluorophore linker conjugate of SN-38)
Kd (iri807.1 [14]): 0.059 µM
Kd (iri807): 0.09 µM
Kd (iri807.2): 0.063 µM
Kd (iri807.3): 0.016 µM
Kd (iri3009): 1.41 µM
Kd (iri807.1 [2]): 0.048 µM
Kd (wrf1071 [15]): 42 µM

Compound: cortisol-TAMRA (TAMRA conjugate of cortisol) [HCY-TAMRA]
Kd (roc22182.1 [1]): 1.4 µM
Kd (iri807.1 [2]): 26 µM
Kd (wrf1071 [15]): 67 µM
Kd (hcy129.1 [3]): 0.005 µM
